Measured values as given in patent publication US8558002B2, “Sulfoximines as kinase inhibitors” (Allergan, Inc., priority 2006, dated 2013).

Tests used:
PDGFRβ = biological target: T1, PDGFRβ (Homo sapiens, UniProt P09619); experiment: PDGFRβ Kinase Assay (poly-Glu-Tyr ELISA); type: biochemical; conditions: purified cytoplasmic domain PDGFR-b protein, 36 μM ATP
T1 construct: 200-300 ng purified cytoplasmic domain PDGFR-b protein (Millipore); purchased Millipore
Protocol: Biochemical PDGFRβ kinase assays were performed in 96 well microtiter plates that were coated overnight with 75 μg of poly-Glu-Tyr (4:1) in 10 mM Phosphate Buffered Saline (PBS), pH 7.4. The coated plates were washed with 2 mls per well PBS+0.05% Tween-20 (PBS-T), blocked by incubation with PBS containing 1% BSA, then washed with 2 mls per well PBS-T prior to starting the reaction. Reactions were carried out in 100 μL reaction volumes containing 36 μM ATP in kinase buffer (50 mM Hepes buffer pH 7.4, 20 mM MgCl2, 0.1 mM MnCl2 and 0.2 mM Na3VO4). Test compounds were reconstituted in 100% DMSO and added to the reaction to give a final DMSO concentration of 5%. Reactions were initiated by the addition 20 ul per well of kinase buffer containing 200-300 ng purified cytoplasmic domain PDGFR-b protein (Millipore). Following a 60 minute incubation at 30° C., the reactions were washed 2 mls per well PBS-T. […] of a monoclonal anti-phosphotyrosine antibody-peroxidase conjugate diluted 1:10,000 in PBS-T was added to the wells for 30 minutes. Following a 2 mls per well wash with PBS-Tween-20, 100 μl of O-Phenylenediamine Dihydrochloride in phosphate-citrate buffer, containing urea hydrogen peroxide, was added to the wells for 7-10 minutes as a colorimetric substrate for the peroxidase. The reaction was terminated by the addition of 100 μl of 2.5N H2SO4 to each well and read using a microplate ELISA reader set at 492 nm. IC50 values for compound inhibition were calculated directly from graphs of optical density (arbitrary units) versus compound concentration following subtraction of blank values.

VEGFR2 [1] = biological target: T2, VEGFR2 (Homo sapiens, UniProt P35968); experiment: VEGFR2 Cellular Assay (FLIPR, VEGF induced increases in intracellular calcium in HUVEC); type: cell-based; parameters: host or cells: HUVEC; conditions: VEGF165 stimulation (10 ng/mL), Fluo-4
Protocol: Automated FLIPR (Fluorometric Imaging Plate Reader) technology was used to screen for inhibitors of VEGF induced increases in intracellular calcium levels in fluorescent dye loaded endothelial cells. HUVEC (human umbilical vein endothelial cells) (Clonetics) were seeded in 384-well fibronectin coated black-walled plates overnight @ 37° C./5% CO2. Cells were loaded with calcium indicator Fluo-4 for 45 minutes at 37° C. Cells were washed 2 times (El×405, Biotek Instruments) to remove extracellular dye. For screening, cells were pre-incubated with test agents for 30 minutes, at a single concentration (10 uM) or at concentrations ranging from 0.0001 to 10.0 uM followed by VEGF165 stimulation (10 ng/mL). Changes in fluorescence at 516 nm were measured simultaneously in all 384 wells using a cooled CCD camera. Data were generated by determining max-min fluorescence levels for unstimulated, stimulated, and drug treated samples. IC50 values for test compounds were calculated from % inhibition of VEGF stimulated responses in the absence of inhibitor.
Target sequence in this assay (P35968 20-1356): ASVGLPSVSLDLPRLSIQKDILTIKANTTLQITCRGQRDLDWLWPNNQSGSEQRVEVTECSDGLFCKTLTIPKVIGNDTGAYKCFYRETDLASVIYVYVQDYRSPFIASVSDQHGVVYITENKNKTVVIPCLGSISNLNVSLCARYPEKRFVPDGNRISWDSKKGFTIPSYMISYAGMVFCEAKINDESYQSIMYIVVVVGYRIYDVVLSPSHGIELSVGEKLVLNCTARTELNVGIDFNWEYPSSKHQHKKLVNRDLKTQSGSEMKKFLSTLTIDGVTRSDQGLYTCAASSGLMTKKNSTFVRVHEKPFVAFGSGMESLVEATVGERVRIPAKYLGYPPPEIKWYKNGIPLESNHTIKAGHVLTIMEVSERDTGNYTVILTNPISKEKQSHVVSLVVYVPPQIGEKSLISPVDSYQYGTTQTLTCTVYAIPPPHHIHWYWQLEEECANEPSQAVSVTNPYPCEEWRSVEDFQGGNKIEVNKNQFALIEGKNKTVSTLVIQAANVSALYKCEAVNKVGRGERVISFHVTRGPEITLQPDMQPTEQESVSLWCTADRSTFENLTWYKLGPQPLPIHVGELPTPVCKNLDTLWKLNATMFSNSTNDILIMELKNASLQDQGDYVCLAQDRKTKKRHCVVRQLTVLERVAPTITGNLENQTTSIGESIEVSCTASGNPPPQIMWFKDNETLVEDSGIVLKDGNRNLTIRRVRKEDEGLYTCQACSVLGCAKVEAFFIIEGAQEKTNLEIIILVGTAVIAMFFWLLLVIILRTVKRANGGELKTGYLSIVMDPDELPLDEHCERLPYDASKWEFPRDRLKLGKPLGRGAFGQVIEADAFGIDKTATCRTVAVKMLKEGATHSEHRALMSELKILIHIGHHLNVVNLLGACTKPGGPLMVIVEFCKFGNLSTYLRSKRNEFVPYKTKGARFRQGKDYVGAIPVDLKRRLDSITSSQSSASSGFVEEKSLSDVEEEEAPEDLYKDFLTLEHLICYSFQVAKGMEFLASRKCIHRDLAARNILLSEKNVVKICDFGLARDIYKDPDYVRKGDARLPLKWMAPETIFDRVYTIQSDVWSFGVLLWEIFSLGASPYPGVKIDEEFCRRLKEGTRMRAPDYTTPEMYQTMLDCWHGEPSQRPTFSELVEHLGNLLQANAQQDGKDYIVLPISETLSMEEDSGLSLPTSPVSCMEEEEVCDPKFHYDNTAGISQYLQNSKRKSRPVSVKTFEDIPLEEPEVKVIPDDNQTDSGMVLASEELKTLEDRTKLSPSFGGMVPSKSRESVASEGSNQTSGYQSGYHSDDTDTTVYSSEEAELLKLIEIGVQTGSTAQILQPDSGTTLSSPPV

VEGFR2 [2] = biological target: T2, VEGFR2; experiment: VEGFR2 Kinase Assay (biochemical KDR kinase, poly-Glu-Tyr ELISA); parameters: 200-300 ng purified cytoplasmic domain KDR protein; purchased BPS Bioscience; conditions: purified cytoplasmic domain KDR protein, 2.7 μM ATP
Protocol: Biochemical KDR kinase assays were performed in 96 well microtiter plates that were coated overnight with 75 μg/well of poly-Glu-Tyr (4:1) in 10 mM Phosphate Buffered Saline (PBS), pH 7.4. The coated plates were washed with 2 mls per well PBS+0.05% Tween-20 (PBS-T), blocked by incubation with PBS containing 1% BSA, then washed with 2 mls per well PBS-T prior to starting the reaction. Reactions were carried out in […] reaction volumes containing 2.7 μM ATP in kinase buffer (50 mM Hepes buffer pH 7.4, 20 mM MgCl2, 0.1 mM MnCl2 and 0.2 mM Na3VO4). Test compounds were reconstituted in 100% DMSO and added to the reaction to give a final DMSO concentration of 5%. Reactions were initiated by the addition 20 ul per well of kinase buffer containing 200-300 ng purified cytoplasmic domain KDR protein (BPS Bioscience, San Diego, Calif.). Following a 15 minute incubation at 30° C., the reactions were washed 2 mls per well PBS-T. 100 μl of a monoclonal anti-phosphotyrosine antibody-peroxidase conjugate diluted 1:10,000 in PBS-T was added to the wells for 30 minutes. Following a 2 mls per well wash with PBS-Tween-20, 100 μl of O-Phenylenediamine Dihydrochloride in phosphate-citrate buffer, containing urea hydrogen peroxide, was added to the wells for 7-10 minutes as a colorimetric substrate for the peroxidase. The reaction was terminated by the addition of 100 μl of 2.5NH2SO4 to each well and read using a microplate ELISA reader set at 492 nm. IC50 values for compound inhibition were calculated directly from graphs of optical density (arbitrary units) versus compound concentration following subtraction of blank values.
Target sequence in this assay (P35968 786-1356 limits assumed): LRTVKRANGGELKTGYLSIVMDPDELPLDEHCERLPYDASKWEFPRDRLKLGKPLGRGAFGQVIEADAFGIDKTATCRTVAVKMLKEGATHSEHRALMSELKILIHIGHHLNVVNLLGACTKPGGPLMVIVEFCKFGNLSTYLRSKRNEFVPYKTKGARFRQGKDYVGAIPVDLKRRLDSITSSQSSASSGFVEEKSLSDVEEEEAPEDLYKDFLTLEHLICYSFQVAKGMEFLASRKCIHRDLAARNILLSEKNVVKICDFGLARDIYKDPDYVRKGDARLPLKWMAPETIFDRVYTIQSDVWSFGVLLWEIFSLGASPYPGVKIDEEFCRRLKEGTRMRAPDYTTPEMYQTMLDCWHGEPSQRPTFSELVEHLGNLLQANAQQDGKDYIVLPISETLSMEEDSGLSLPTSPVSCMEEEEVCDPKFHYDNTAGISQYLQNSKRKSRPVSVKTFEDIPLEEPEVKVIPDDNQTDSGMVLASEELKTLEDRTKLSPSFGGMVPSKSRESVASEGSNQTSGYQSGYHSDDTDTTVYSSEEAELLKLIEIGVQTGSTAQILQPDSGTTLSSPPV

VEGFR1 = VEGFR1 (Homo sapiens, UniProt P17948); experiment: VEGFR1 Kinase; type: biochemical
Chain of VEGFR1 (P17948 27-1338, species assumed): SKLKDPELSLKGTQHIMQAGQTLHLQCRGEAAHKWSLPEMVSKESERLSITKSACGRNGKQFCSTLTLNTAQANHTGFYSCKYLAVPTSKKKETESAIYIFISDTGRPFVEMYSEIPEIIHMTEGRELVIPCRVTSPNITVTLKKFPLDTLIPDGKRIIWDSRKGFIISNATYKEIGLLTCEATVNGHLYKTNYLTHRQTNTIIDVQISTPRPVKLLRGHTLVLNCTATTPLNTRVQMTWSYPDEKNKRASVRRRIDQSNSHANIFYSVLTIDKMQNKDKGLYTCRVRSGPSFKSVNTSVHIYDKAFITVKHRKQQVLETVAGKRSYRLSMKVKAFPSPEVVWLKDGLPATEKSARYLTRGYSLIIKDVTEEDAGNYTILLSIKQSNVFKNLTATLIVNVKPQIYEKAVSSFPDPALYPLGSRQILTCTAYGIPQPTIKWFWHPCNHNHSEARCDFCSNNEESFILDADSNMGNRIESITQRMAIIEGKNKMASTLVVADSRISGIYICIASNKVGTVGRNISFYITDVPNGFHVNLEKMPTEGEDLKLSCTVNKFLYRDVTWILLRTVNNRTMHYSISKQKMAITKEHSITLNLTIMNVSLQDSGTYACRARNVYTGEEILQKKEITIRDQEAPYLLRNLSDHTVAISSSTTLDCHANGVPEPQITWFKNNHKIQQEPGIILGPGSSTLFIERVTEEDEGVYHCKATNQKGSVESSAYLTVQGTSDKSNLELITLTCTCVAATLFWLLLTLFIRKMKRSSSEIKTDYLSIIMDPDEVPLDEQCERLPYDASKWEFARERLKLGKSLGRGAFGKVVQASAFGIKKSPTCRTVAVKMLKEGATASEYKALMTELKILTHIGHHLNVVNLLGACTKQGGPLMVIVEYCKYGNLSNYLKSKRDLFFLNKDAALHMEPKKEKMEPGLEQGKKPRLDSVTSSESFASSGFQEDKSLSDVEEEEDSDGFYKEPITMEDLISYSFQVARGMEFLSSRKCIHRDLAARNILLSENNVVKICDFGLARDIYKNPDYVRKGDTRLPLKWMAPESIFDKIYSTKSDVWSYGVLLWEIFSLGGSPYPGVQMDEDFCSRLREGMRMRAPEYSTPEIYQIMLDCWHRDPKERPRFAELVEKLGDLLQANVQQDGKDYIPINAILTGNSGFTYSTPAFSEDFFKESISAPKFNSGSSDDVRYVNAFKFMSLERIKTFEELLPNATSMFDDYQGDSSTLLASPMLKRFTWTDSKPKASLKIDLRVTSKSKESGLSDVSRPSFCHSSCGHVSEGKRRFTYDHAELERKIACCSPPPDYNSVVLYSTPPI

T1 sequence (P09619 554-1106 limits assumed): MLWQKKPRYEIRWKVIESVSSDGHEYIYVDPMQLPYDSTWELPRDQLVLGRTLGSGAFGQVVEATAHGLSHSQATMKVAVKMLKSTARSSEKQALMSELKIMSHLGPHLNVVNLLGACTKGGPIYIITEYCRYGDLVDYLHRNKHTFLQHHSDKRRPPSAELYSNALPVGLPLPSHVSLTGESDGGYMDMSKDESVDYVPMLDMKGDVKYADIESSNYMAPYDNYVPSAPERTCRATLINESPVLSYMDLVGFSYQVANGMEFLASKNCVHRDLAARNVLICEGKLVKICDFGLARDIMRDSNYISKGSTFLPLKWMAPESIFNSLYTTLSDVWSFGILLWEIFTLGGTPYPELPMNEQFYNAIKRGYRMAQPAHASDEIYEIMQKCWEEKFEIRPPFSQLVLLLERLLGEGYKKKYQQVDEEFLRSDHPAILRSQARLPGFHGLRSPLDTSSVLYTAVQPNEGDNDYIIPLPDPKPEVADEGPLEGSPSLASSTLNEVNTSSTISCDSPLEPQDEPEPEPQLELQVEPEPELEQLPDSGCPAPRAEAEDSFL

IC50 (PDGFRβ)	IC50 (VEGFR2 [1])	IC50 (VEGFR2 [2])	IC50 (VEGFR1)	Compound
57 nM	1 nM	8 nM		COC(=O)CCCCS(=O)(CCCCC(=O)OC)=NC(=O)c1cnc(N)c(C#Cc2cccc(C(=O)Nc3cccc(C)c3)c2)c1 [Example 12, Dimethyl 5,5′-[N-({6-amino-5-[(3-{[(3-methylphenyl)amino]carbonyl}phenyl)ethynyl]pyridin-3-yl}carbonyl)sulfonimidoyl]dipentanoate]
10 nM	3 nM	10 nM		COC(=O)CCCCS(=O)(CCCCC(=O)OC)=NC(=O)c1cnc(N)c(C#Cc2cccc(NC(=O)c3cccc(C(F)(F)F)c3)c2)c1 [Example 5, Dimethyl 5,5′-[N-({6-amino-5-[(3-{[3-(trifluoromethyl)benzoyl]amino}phenyl)ethynyl]pyridin-3-yl}carbonyl)sulfonimidoyl]dipentanoate]
20 nM	5 nM	13 nM	23 nM	COC(=O)CCCCS(=O)(CCCCC(=O)OC)=NC(=O)c1cnc(N)c(C#Cc2ccc(NC(=O)Nc3cc(C)ccc3F)cc2)c1 [Example 19, Dimethyl 5,5′-{N-[(6-amino-5-{[4-({[(2-fluoro-5-methylphenyl)amino]carbonyl}amino)phenyl]ethynyl}pyridin-3-yl)carbonyl]sulfonimidoyl}dipentanoate]
69 nM	6 nM	20 nM		COC(=O)CCCCS(=O)(CCCCC(=O)OC)=NC(=O)c1cnc(N)c(C#Cc2cccc(NC(=O)c3cc(C(F)(F)F)ccc3F)c2)c1 [Example 10, Dimethyl 5,5′-[N-({6-amino-5-[(3-{[2-fluoro-5-(trifluoromethyl)benzoyl]amino}phenyl)ethynyl]pyridin-3-yl}carbonyl)sulfonimidoyl]dipentanoate]
	23 nM	10 nM		COC(=O)CCCCS(=O)(CCCCC(=O)OC)=NC(=O)c1cnc(N)c(C#Cc2cccc(NC(=O)Nc3cc(C)ccc3F)c2)c1 [Example 18, Dimethyl 5,5′-{N-[(6-amino-5-{[3-({[(2-fluoro-5-methylphenyl)amino]carbonyl}amino)phenyl]ethynyl}pyridin-3-yl)carbonyl]sulfonimidoyl}dipentanoate]
	6 nM	12 nM		COC(=O)CCCCS(=O)(CCCCC(=O)OC)=NC(=O)c1cnc(N)c(C#Cc2cccc(NC(=O)c3cccc([S+](C)[O-])c3)c2)c1 (centres unmarked) [Example 8, Dimethyl 5,5′-[N-({6-amino-5-[(3-{[3-(methylsulfinyl)benzoyl]amino}phenyl)ethynyl]pyridin-3-yl}carbonyl)sulfonimidoyl]dipentanoate]
29 nM	49 nM	11 nM	13 nM	COC(=O)CCCCS(=O)(CCCCC(=O)OC)=NC(=O)c1cnc(N)c(C#Cc2cccc(NC(=O)c3cc(C)ccc3F)c2)c1 [Example 7, Dimethyl 5,5′-(N-{[6-amino-5-({3-[(2-fluoro-5-methylbenzoyl)amino]phenyl}ethynyl)pyridin-3-yl]carbonyl}sulfonimidoyl)dipentanoate]
	4 nM	5 nM		COC(=O)CCCCS(=O)(CCCCC(=O)OC)=NC(=O)c1cnc(N)c(C#Cc2cccc(NC(=O)c3cccc(SC)c3)c2)c1 [Example 3, Dimethyl 5,5′-[N-({6-amino-5-[(3-{[3-(methylthio)benzoyl]amino}phenyl)ethynyl]pyridin-3-yl}carbonyl)sulfonimidoyl]dipentanoate]
68 nM	11 nM	15 nM		COC(=O)CCCCS(=O)(CCCCC(=O)OC)=NC(=O)c1cnc(N)c(C#Cc2cccc(C(=O)Nc3ccc(F)c(Cl)c3)c2)c1 [Example 15, Dimethyl 5,5′-[N-({6-amino-5-[(3-{[(3-chloro-4-fluorophenyl)amino]carbonyl}phenyl)ethynyl]pyridin-3-yl}carbonyl)sulfonimidoyl]dipentanoate]
34 nM	2 nM	8 nM		COC(=O)CCCCS(=O)(CCCCC(=O)OC)=NC(=O)c1cnc(N)c(C#Cc2cccc(NC(=O)c3ccc(F)c(Cl)c3)c2)c1 [Example 4, Dimethyl 5,5′-(N-{[6-amino-5-({3-[(3-chloro-4-fluorobenzoyl)amino]phenyl}ethynyl)pyridin-3-yl]carbonyl}sulfonimidoyl)dipentanoate]
38 nM	2 nM	4 nM		COC(=O)CCCCS(=O)(CCCCC(=O)OC)=NC(=O)c1cnc(N)c(C#Cc2cccc(C(=O)Nc3cccc(OC)c3)c2)c1 [Example 11, Dimethyl 5,5′-[N-({6-amino-5-[(3-{[(3-methoxyphenyl)amino]carbonyl}phenyl)ethynyl]pyridin-3-yl}carbonyl)sulfonimidoyl]dipentanoate]
20 nM		28 nM	27 nM	COC(=O)CCCCS(=O)(CCCCC(=O)OC)=NC(=O)c1cnc(N)c(C#Cc2cccc(C(=O)Nc3cc(C(C)(C)C)on3)c2)c1 [Example 16, Dimethyl 5,5′-[N-({6-amino-5-[(3-{[(5-tert-butylisoxazol-3-yl)amino]carbonyl}phenyl)ethynyl]pyridin-3-yl}carbonyl)sulfonimidoyl]dipentanoate]
38 nM	5 nM	9 nM		COC(=O)CCCCS(=O)(CCCCC(=O)OC)=NC(=O)c1cnc(N)c(C#Cc2cccc(C(=O)Nc3ccc(OC)c(Cl)c3)c2)c1 [Example 13, Dimethyl 5,5′-[N-({6-amino-5-[(3-{[(3-chloro-4-methoxyphenyl)amino]carbonyl}phenyl)ethynyl]pyridin-3-yl}carbonyl)sulfonimidoyl]dipentanoate]
36 nM		37 nM	32 nM	COC(=O)CCCCS(=O)(CCCCC(=O)OC)=NC(=O)c1cnc(N)c(C#Cc2cccc(C(=O)Nc3ccc(Cl)c(C(F)(F)F)c3)c2)c1 [Example 17, Dimethyl 5,5′-{N-[(6-amino-5-{[3-({[4-chloro-3-(trifluoromethyl)phenyl]amino}carbonyl)phenyl]ethynyl}pyridin-3-yl)carbonyl]sulfonimidoyl}dipentanoate]
25 nM	< 1 nM	9 nM		COC(=O)CCCCS(=O)(CCCCC(=O)OC)=NC(=O)c1cnc(N)c(C#Cc2cccc(NC(=O)c3cccc(C)c3)c2)c1 [Example 1, Dimethyl 5,5′-(N-{[6-amino-5-({3-[(3 methylbenzoyl)amino]phenyl}ethynyl)pyridin-3-yl]carbonyl}sulfonimidoyl)dipentanoate]
21 nM	1 nM	11 nM		COC(=O)CCCCS(=O)(CCCCC(=O)OC)=NC(=O)c1cnc(N)c(C#Cc2cccc(NC(=O)c3cccc(Cl)c3)c2)c1 [Example 6]
